Data on 36 molecules can be found in patent publication US10934263B2, “Charged ion channel blockers and methods for use” (Nocion Therapeutics, Inc., priority 2019, dated 2021).

In data set [1] the target is T1, NaV1.7 (Homo sapiens, UniProt Q15858).
T1 construct: expressed in transfected cells; tetracycline-inducible, kept under hygromycin and blasticidin
Description: Whole cell patch clamp, internal block of NaV1.7 current (compound in internal solution). Conditions: compound applied internally, manual patch clamp, read-out: Nav1.7 Intracellular Inhibition. It is filed as cell-based. Here is the method: Representative compounds of the invention were synthesized according to the described methods and tested for the ability to inhibit voltage-gated sodium channels.
NaV1.7 was expressed upon induction with tetracycline. Cells were cultured in DMEM containing 10% dialyzed Fetal Bovine Serum (VWR, Radnor, Pa.), 1% Glutamax (VWR, Radnor, Pa.), 1% Penicillin-Streptomycin (VWR, Radnor, Pa.), 100 mg/L Hygromycin (Thermo Fisher Scientific, Waltham, Mass. and 5 mg/L Blasticidin (Alfa Aesar, Haverhill, Mass.). Cells were grown and maintained at 37° C. in a humidified environment containing 10% CO2 in air. Cells were detached from the culture flask for passage and harvested using 0.05% Trypsin-EDTA (Thermo Fisher Scientific, Waltham, Mass.). To induce NaV1.7, cells were induced with tetracycline (0.1-1 μg/mL, IBI Scientific, Peosta, Iowa) the day before recording and plated onto 24-well plates. Cells were washed with DPBS (VWR, Radnor, Pa.), trypsinized and then triturated five times in 10 mL of growth media to break apart cell aggregates. For one 24-well plate, 2 mL of cell suspension was mixed with 23 mL of fresh growth media and 0.1-1 μg/mL tetracycline added. 1 ml of mixed media with cells was then added to each well of a 24-well plate, with a 12 mm coverslip already placed in the bottom of the well. Cells were then incubated in 37° C. and 10% CO2 overnight.
The intracellular solution contained the following (in mM) CsCl 135, NaCl 10, EGTA 10, HEPES 10, MgCl2 2, adjusted to pH 7.2 with CsOH. The external solution was a normal Ringer solution containing (in mM) NaCl 155, HEPES 10, glucose 10, KCl 3.5, CaCl2 1.5, MgCl2 1 adjusted to pH 7.4 with NaOH. CsCl is from Alfa Aesar, Haverhill, Mass. All other chemicals are from Sigma-Aldrich, St. Louis, Mo. In order to test the degree of internal block by test compounds the compounds were dissolved in internal solution at the indicated test concentration. […] In order to test the degree of external block by test compounds the compounds were dissolved in external solution at the indicated test concentration.
18-24 hours after cells were induced with tetracycline, coverslips were placed into a chamber filled with Normal Ringer solution at room temperature and the chamber placed on a microscope. Pipettes were pulled from borosilicate glass on a P97 puller (Sutter Instrument, Novato, Calif.) and polished with a MF-830 Microforge (Narishige International USA, Inc, Amityville, N.Y.) to have a resistance of 1.5-2.5 MΩ when filled with CsCl internal solution at room temperature. Healthy cells (those that are round and translucent with no visible blemishes) were chosen for seal formation. A seal was formed between the pipette and the cell, and a brief pulse of suction was used to “break in” and establish the whole-cell configuration. The membrane potential was held at −100 mV before the voltage protocol began. Only cells with series resistance between 1.5-5 MΩ were retained for analysis. The voltage protocol was as follows: Cells were held at −100 mV for 12 ms followed by a hyperpolarizing step to −105 mV for 12 ms to monitor the leak. Cells were then stepped back to −100 mV for 40 ms. Cells were then depolarized to −20 mV for 10 ms and then returned to −100 mV for 26 ms.
Once the recording was started, the voltage protocol was run at 30 second intervals for 5 minutes to get a stable baseline. This was followed by four 30-second periods of 5 Hz stimulation of the same voltage protocol separated by 1 minute of rest which was then followed by 0.33 Hz stimulation after the last train. Currents were recorded using PatchMaster software with Heka EPC10 (HEKA Electronics, Lambrecht, Germany). Only cells with inward current amplitudes at −20 mV between 400 pA and 4 nA were accepted. In addition, cells having leak currents greater than 10% of their current amplitudes were discarded. […]
(In general: In patch-clamp work, channel activity is measured electrically.)

Data set [2] is described as follows: PAMPA membrane permeability assay. Conditions: PAMPA permeability coefficient, GIT lipid, buffer pH 7.4, 4 hours incubation. It is filed as in vitro ADME. Here is the method: The PAMPA assay (pION, Inc., Woburn Mass.) was used to determine the ability of compounds of the invention to cross an artificial lipid membrane by passive diffusion. Test compounds were dissolved in DMSO (10 mM) and diluted 200-fold in buffer (pION Inc., pH 7.4) to provide 50 uM stock solutions. Buffer (150 μL) was added to a UV blank plate and stock solutions (150 μL) were transferred to a UV reference plate. The blank and reference spectrum were read using a spectrophotometer. Stock solutions (200 μL) were added to the donor plate of the PAMPA sandwich plate and an accept plate painted with GIT lipid (pION Inc, 5 μL) was placed on top. Buffer (200 μL) was added to the acceptor plate and the PAMPA sandwich plate was incubated for 4 hours. Aliquots (150 μL) from the acceptor plate were added to a UV plate and read as acceptor spectrum. Aliquots (150 μL) of the donor solutions were added to a UV analysis plate and read as donor spectrum. The permeability coefficient of test compounds was calculated using PAMPA Explorer™ software (version 3.5.0.4) based on the AUC of the reference plate, the donor plate, and the acceptor plate.

T1 sequence (Q15858 whole entry): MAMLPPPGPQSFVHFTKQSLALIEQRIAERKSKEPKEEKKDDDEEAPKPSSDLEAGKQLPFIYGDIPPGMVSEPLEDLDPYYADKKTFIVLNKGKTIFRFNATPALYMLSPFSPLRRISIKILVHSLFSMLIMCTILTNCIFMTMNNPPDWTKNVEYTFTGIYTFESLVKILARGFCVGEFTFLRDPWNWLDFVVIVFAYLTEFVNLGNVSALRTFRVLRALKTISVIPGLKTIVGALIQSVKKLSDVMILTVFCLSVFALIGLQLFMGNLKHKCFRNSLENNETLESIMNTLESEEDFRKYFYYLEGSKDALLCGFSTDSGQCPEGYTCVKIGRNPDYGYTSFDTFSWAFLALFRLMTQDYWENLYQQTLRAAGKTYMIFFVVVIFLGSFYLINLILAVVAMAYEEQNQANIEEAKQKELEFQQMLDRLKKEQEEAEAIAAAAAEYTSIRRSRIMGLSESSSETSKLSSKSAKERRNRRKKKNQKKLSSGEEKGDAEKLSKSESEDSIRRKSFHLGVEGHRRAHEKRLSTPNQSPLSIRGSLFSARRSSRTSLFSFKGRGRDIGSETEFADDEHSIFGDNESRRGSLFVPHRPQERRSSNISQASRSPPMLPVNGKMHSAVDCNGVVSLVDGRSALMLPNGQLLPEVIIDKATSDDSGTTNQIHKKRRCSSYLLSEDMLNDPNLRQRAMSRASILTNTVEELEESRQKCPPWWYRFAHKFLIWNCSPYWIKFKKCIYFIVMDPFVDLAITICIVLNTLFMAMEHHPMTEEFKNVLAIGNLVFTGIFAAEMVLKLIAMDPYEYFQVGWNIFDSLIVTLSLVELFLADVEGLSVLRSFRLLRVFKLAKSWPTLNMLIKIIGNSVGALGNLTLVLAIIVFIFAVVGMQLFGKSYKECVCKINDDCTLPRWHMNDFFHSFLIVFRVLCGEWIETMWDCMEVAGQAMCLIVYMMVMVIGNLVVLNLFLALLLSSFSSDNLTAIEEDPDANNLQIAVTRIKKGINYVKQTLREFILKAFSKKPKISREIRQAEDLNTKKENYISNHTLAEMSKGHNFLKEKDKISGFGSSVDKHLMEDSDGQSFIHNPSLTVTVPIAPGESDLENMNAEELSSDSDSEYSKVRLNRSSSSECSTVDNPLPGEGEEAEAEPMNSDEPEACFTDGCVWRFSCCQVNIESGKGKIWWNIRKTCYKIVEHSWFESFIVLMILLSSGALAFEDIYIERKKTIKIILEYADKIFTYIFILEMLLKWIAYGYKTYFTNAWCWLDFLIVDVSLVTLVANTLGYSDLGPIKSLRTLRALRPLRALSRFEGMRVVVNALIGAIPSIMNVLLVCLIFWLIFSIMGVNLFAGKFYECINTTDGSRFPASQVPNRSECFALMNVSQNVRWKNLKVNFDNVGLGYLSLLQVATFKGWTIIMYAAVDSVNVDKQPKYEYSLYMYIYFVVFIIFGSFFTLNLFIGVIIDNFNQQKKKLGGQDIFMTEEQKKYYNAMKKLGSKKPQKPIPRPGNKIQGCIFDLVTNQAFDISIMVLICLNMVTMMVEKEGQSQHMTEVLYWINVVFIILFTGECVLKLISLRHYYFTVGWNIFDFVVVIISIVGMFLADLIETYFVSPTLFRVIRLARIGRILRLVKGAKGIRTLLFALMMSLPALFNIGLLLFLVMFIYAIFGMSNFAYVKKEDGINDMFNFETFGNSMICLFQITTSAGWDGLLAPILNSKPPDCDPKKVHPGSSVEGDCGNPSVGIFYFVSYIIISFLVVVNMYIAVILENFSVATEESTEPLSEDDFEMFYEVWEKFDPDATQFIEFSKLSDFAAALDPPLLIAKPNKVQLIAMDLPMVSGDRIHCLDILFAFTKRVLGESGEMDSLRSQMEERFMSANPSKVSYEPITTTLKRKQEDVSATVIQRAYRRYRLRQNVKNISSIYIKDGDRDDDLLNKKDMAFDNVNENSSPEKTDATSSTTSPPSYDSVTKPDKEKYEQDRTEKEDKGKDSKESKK

Broadly, the inhibition is the drop in the measured response relative to a control, in per cent. As for `Cc1cccc(C)c1NC(=O)C[n+]1cccc(O)c1` [Compound 42], the inhibition at 10 µM in data set [1] was below 40%.

Turning to `CCC(C(=O)Nc1c(C)cccc1C)[n+]1ccn(C)c1.[Br-]` (stereo not shown) [Compound 4A, 3-(1-((2,6-dimethylphenyl)amino)-1-oxobutan-2-yl)-1-methyl-1H-imidazol-3-ium bromide], the inhibition at 32 µM in data set [1] is 40 to 70%. In addition, in data set [2], the “PAMPA (10^−6 cm/s)” value was “+ (<0.1 10^−6 cm/s)”.

For `Cc1cccc(C)c1NC(=O)C[n+]1ccc(-c2ccccc2)cc1.[Br-]` [Compound 14A], in data set [1], the inhibition at 32 µM was below 40%. The “PAMPA (10^−6 cm/s)” value in data set [2] is reported as “+ (<0.1 10^−6 cm/s)”.

On to `Cc1cccc(C)c1NC(=O)C[n+]1cccc(C(=O)N(C)C)c1` [Compound 41], for which, in data set [1], the inhibition at 10 µM fell in the range of 40 to 70%. In data set [2], the “PAMPA (10^−6 cm/s)” value is reported as “+ (<0.1 10^−6 cm/s)”.

For `Cc1cccc(C)c1NC(=O)C[n+]1ccc2ccccc2c1.[Br-]` [Compound 15A], in data set [1], the inhibition at 32 µM is above 95%. Further, the “PAMPA (10^−6 cm/s)” value in data set [2] is on record as “++ (0.1-2.0 10^−6 cm/s)”.

As for `Cc1cc(F)cc(C)c1NC(=O)C[n+]1ccccc1.[Br-]` [Compound 7A, 1-(2-((4-fluoro-2,6-dimethylphenyl)amino)-2-oxoethyl) pyridin-1-ium bromide], in data set [1], the inhibition at 32 µM was below 40%. Moreover, in data set [2], the “PAMPA (10^−6 cm/s)” value is given as “+ (<0.1 10^−6 cm/s)”.

`CCOC(=O)Cn1cc[n+](CC(=O)Nc2c(C)cccc2C)c1` [Compound 60]: the inhibition at 10 µM in data set [1] lay in the range of 40 to 70%. For the same molecule, the “PAMPA (10^−6 cm/s)” value in data set [2] was “+++ (2.0-10.010^−6 cm/s)”.

Consider `Cc1cccc(C)c1NC(=O)C[n+]1cccc(C#N)c1` [Compound 52], for which the inhibition at 10 µM in data set [1] fell in the range of 70 to 95%.

With `COc1cc(C)c(NC(=O)C[n+]2ccccc2)c(C)c1.[Br-]` [Compound 10A, 1-(2-((4-methoxy-2,6-dimethylphenyl)amino)-2-oxoethyl) pyridin-1-ium bromide], in data set [1], the inhibition at 32 µM is below 40%. For the same molecule, the “PAMPA (10^−6 cm/s)” value in data set [2] is listed as “+ (<0.1 10^−6 cm/s)”.

As for `Cc1ccc[n+](CC(=O)Nc2c(C)cccc2C)c1` [Compound 39], the inhibition at 10 µM in data set [1] was 70 to 95%.

With `Cc1cccc(C)c1NC(=O)C[n+]1ccccc1.[Br-]` [Compound 1A, 1-(2-((2,6-dimethylphenyl)amino)-2-oxoethyl) pyridin-1-ium bromide], the inhibition at 32 µM in data set [1] was 70 to 95%. In data set [2], the “PAMPA (10^−6 cm/s)” value was “++ (0.1-2.0 10^−6 cm/s)”.

As to `Cc1cccc(C)c1NC(=O)C[n+]1ccn(Cc2ccccc2)c1` [Compound 38], the inhibition at 10 µM in data set [1] fell in the range of 70 to 95%.

On to `CCCCCCn1cc[n+](CC(=O)Nc2c(C)cccc2C)c1` [Compound 63], for which the inhibition at 10 µM in data set [1] was 40 to 70%. For the same molecule, the “PAMPA (10^−6 cm/s)” value in data set [2] is given as “+ (<0.1 10^−6 cm/s)”.

Turning to `Cc1cc(Cl)cc(C)c1NC(=O)C[n+]1ccccc1.[Br-]` [Compound 9A, 1-(2-((4-chloro-2,6-dimethylphenyl)amino)-2-oxoethyl) pyridin-1-ium bromide], the inhibition at 32 µM in data set [1] is below 40%. In addition, the “PAMPA (10^−6 cm/s)” value in data set [2] was “+ (<0.1 10^−6 cm/s)”.

With `Cc1cc(C)c(NC(=O)C[n+]2ccccc2)c(C)c1.[Br-]` [Compound 8A, 1-(2-(mesitylamino)-2-oxoethyl)pyridin-1-ium bromide], the inhibition at 32 µM in data set [1] is below 40%. Besides, the “PAMPA (10^−6 cm/s)” value in data set [2] was “+ (<0.1 10^−6 cm/s)”.

Consider `Cc1cccc(C)c1NC(=O)C[n+]1ccn(C(C)(C)C)c1` [Compound 36], for which, in data set [1], the inhibition at 10 µM is 70 to 95%. Further, the “PAMPA (10^−6 cm/s)” value in data set [2] is reported as “+ (<0.1 10^−6 cm/s)”.

Turning to `Cc1cccc(C)c1NC(=O)C[n+]1cccc(C(C)C)c1` [Compound 31A], the inhibition at 10 µM in data set [1] is 70 to 95%.

For `Cc1cccc(C)c1NC(=O)C[n+]1ccn(-c2ccccc2)c1` [Compound 37], the inhibition at 10 µM in data set [1] was 70 to 95%.

Regarding `CC(=O)Nc1ccc[n+](CC(=O)Nc2c(C)cccc2C)c1` [Compound 48], the inhibition at 10 µM in data set [1] was above 95%. For the same molecule, in data set [2], the “PAMPA (10^−6 cm/s)” value was “+ (<0.1 10^−6 cm/s)”.

Consider `Cc1cccc(C)c1NC(=O)C[n+]1ccnc(C)c1C` [Compound 55], for which the inhibition at 10 µM in data set [1] fell in the range of 40 to 70%.

`Cc1cccc(C)c1NC(=O)C[n+]1ccccc1C.[Br-]` [Compound 5A, 1-(2-((2,6-dimethylphenyl)amino)-2-oxoethyl)-2-methylpyridin-1-ium bromide]: the inhibition at 32 µM in data set [1] lay within 70 to 95%. In data set [2], the “PAMPA (10^−6 cm/s)” value is “+ (<0.1 10^−6 cm/s)”.

As for `Cc1cccc(C)c1NC(=O)C[n+]1cc(-c2ccccc2)n(C)c1.[Br-]` [Compound 24A], the inhibition at 32 µM in data set [1] lay within 70 to 95%. Besides, the “PAMPA (10^−6 cm/s)” value in data set [2] is “+ (<0.1 10^−6 cm/s)”.

As for `CCNC(=O)Cn1ccc[n+]1CC(=O)Nc1c(C)cccc1C.[Br-]` [Compound 30A, 2-(2-((2,6-dimethylphenyl)amino)-2-oxoethyl)-1-(2-(ethylamino)-2-oxoethyl)-1H-pyrazol-2-ium bromide], the “PAMPA (10^−6 cm/s)” value in data set [2] is given as “++ (0.1-2.0 10^−6 cm/s)”.

For the molecule `Cc1cccc(C)c1NC(=O)C[n+]1c(C)ccc(-c2ccccc2)c1C.[Br-]` [Compound 23A], the inhibition at 32 µM in data set [1] is above 95%. Further, the “PAMPA (10^−6 cm/s)” value in data set [2] was “+ (<0.1 10^−6 cm/s)”.

Regarding `Cc1cccc(C)c1OC(=O)C[n+]1cccn1C1CCCCC1` [Compound 111], the inhibition at 10 µM in data set [1] is above 95%.

On to `Cc1cccc(C)c1NC(=O)C[n+]1cccc(C2CCCCC2)c1` [Compound 20A], for which the inhibition at 32 µM in data set [1] lay in the range of 70 to 95%.

Consider `Cc1cccc(C)c1NC(=O)C[n+]1ccn(-c2ccc(Cl)cc2)c1` [Compound 64], for which the “PAMPA (10^−6 cm/s)” value in data set [2] was “++ (0.1-2.0 10^−6 cm/s)”.

Consider `Cc1cccc(C)c1NC(=O)C[n+]1cccn1C1CCCCC1.[Br-]` [Compound 28A], for which, in data set [2], the “PAMPA (10^−6 cm/s)” value was “+ (<0.1 10^−6 cm/s)”.

Take `CCOC(=O)c1c[n+](CC(=O)Nc2c(C)cccc2C)cn1C` [Compound 61]: the inhibition at 10 µM in data set [1] lay within 40 to 70%.

On to `Cc1cccc(C)c1NC(=O)C[n+]1cc2ccccn2c1` [Compound 35], for which, in data set [1], the inhibition at 10 µM was 40 to 70%.

For the molecule `CCc1cc[n+](CC(=O)Nc2c(C)cccc2C)cc1` [Compound 19A], the inhibition at 32 µM in data set [1] is 70 to 95%.

Regarding `COc1ccc[n+](CC(=O)Nc2c(C)cccc2C)c1` [Compound 43], in data set [1], the inhibition at 10 µM was 70 to 95%.

Take `Cc1cccc(C)c1NC(=O)C[n+]1cccc(Cl)c1` [Compound 45]: the inhibition at 10 µM in data set [1] was 70 to 95%.

In the case of `Cc1cccc(C)c1NC(=O)C[n+]1cccc(F)c1` [Compound 44], the inhibition at 10 µM in data set [1] was in the range of 70 to 95%.

As to `Cc1cccc(C)c1NC(=O)C[n+]1cccn1CC(C)C.[Br-]` [Compound 27A], in data set [2], the “PAMPA (10^−6 cm/s)” value is on record as “+ (<0.1 10^−6 cm/s)”.

Consider `CCCn1cc[n+](CC(=O)Nc2c(C)cccc2C)c1` [Compound 57], for which the inhibition at 10 µM in data set [1] fell in the range of 70 to 95%.
